Experimental data: patent US9814724B2, “Antitumor effect potentiator and antitumor agent” (TAIHO PHARMACEUTICAL CO., LTD., priority 2003, dated 2017)

Columns and labels:
[1] = tested on: human colon cancer cell line KM20C; experiment: Antitumor effect on subcutaneously implanted KM20C tumor in nude mice, 9-day oral dosing (Example 1); assay type: in vivo, male nude mice BALB/c-nu/nu; settings: folinic acid 20.0 mg/kg/day (given as calcium folinate), alone or with tegafur+gimeracil+oteracil potassium 8.3+2.4+8.1 mg/kg/day or tegafur+uracil 20.0+44.8 mg/kg/day, oral once a day for 9 days, 10 days after grouping
Experimental: The ratio of the tumor volume 10 days after grouping to the tumor volume upon grouping was calculated to obtain a relative tumor volume. The tumor growth inhibition ratio (%) was determined using the relative tumor volumes of the drug-administered groups and the control group.

[2] = Antitumor effect on subcutaneously implanted Colon 38 tumor in mice, 9-day oral dosing (Example 2); assay type: in vivo, male mice C57BL/6; settings: folinic acid 40.0 mg/kg/day (given as calcium folinate), alone or with tegafur+gimeracil+oteracil potassium 8.7+2.5+8.5 mg/kg/day or tegafur+uracil 15.1+33.8 mg/kg/day, oral once a day for 9 days; 12 days after grouping
Experimental: (§1) The ratio of the tumor volume 12 days after grouping to the tumor volume upon grouping was calculated to obtain a relative tumor volume. The tumor growth inhibition ratio (%) was determined using the relative tumor volumes of the drug-administered groups and the control group.

[3] = tested on: human colon cancer cell line Colon 38; experiment: as above; assay type: in vivo, male mice C57BL/6; settings: folinic acid 40.0 mg/kg/day (given as calcium folinate), alone or with tegafur+gimeracil+oteracil potassium 8.7+2.5+8.5 mg/kg/day or tegafur+uracil 15.1+33.8 mg/kg/day, oral once a day for 9 days; 12 days after grouping, vs control group
Experimental: as §1

[4] = tested on: human colon cancer cell line KM20C; experiment: Effect of folinate dosage on the antitumor effect on implanted KM20C tumor in nude mice, 14-day oral dosing (Example 3); assay type: in vivo, male nude mice (BALB/cA-nu); settings: for enhancement of the antitumor effect of the tegafur/gimeracil/oteracil potassium combined drug: KM20C
Experimental: The ratio of the tumor volume 15 days after grouping to the tumor volume upon grouping was calculated to obtain a relative tumor volume. The tumor growth inhibition ratio (%) was determined using the relative tumor volumes of the drug-administered groups and the control group.

[5] = Body weight change as parameter of whole-body toxicity (Example 1); settings: folinic acid 20.0 mg/kg/day (given as calcium folinate), alone or with tegafur+gimeracil+oteracil potassium 8.3+2.4+8.1 mg/kg/day or tegafur+uracil 20.0+44.8 mg/kg/day, oral once a day for 9 days; 10 days after beginning of administration
Source text: A cubic fragment measuring about 2 mm in diameter of the human colon cancer cell line KM20C was subcutaneously implanted on the backs of male nude mice BALB/c-nu/nu. When the average tumor volume (=major axis (mm)×minor axis (mm)^2) reached about 200 mm^3, the mice were divided into groups.
The following preparations each dissolved or suspended in a 0.5% hydroxypropylmethyl cellulose (HPMC) solution were orally administered to the mice once a day in amounts as shown in Table 1 for 9 consecutive days from the day after grouping: calcium folinate; a tegafur/gimeracil/oteracil potassium combined drug (molar ratio of tegafur:gimeracil:oteracil potassium=1:0.4:1); a combined drug containing the tegafur/gimeracil/oteracil potassium combined drug described above and calcium folinate; a tegafur/uracil combined drug (molar ratio of tegafur:uracil=1:4); and a combined drug containing the tegafur/uracil combined drug described above and calcium folinate.
(§2) The body weight change was calculated by subtracting the body weight of mice 10 days after the beginning of administration from the body weight of mice upon grouping and used as a parameter of whole-body toxicity of the pharmaceutical preparation.

[6] = Body weight change as parameter of whole-body toxicity (Example 2); settings: folinic acid 40.0 mg/kg/day (given as calcium folinate), alone or with tegafur+gimeracil+oteracil potassium 8.7+2.5+8.5 mg/kg/day or tegafur+uracil 15.1+33.8 mg/kg/day, oral once a day for 9 days; 10 days after beginning of administration
Source text: A cubic fragment measuring about 2 mm in diameter of the human colon cancer cell line Colon 38 was subcutaneously implanted on the backs of male mice C57BL/6. When the average tumor volume (=major axis (mm)×minor axis (mm)^2) reached about 150 mm^3, the mice were divided into groups.
The following preparations each dissolved or suspended in a 0.5% hydroxypropylmethyl cellulose (HPMC) solution were orally administered to the mice once a day in amounts as shown in Table 2 for 9 consecutive days from the day after grouping: calcium folinate; a tegafur/gimeracil/oteracil potassium combined drug (molar ratio of tegafur:gimeracil:oteracil potassium=1:0.4:1); a combined drug containing the tegafur/gimeracil/oteracil potassium combined drug described above and calcium folinate; a tegafur/uracil combined drug (molar ratio of tegafur:uracil=1:4); and a combined drug containing the tegafur/uracil combined drug described above and calcium folinate.
as §2

[7] = Body weight change as parameter of whole-body toxicity (Example 3); settings: folinic acid 20.0 mg/kg/day (as calcium folinate), alone or with tegafur+gimeracil+oteracil potassium 5.7+1.7+5.6 mg/kg/day, oral once a day for 14 days; 15 days after beginning of administration
Source text: A cubic fragment measuring about 2 mm in diameter of the human colon cancer cell line KM20C was subcutaneously implanted on the backs of male nude mice (BALB/cA-nu). When the average tumor volume (=major axis (mm)×minor axis (mm)^2) reached about 200 mm^3, the mice were divided into groups.
A combined drug containing a tegafur/gimeracil/oteracil potassium combined drug (molar ratio of tegafur:gimeracil oteracil potassium=1:0.4:1) and calcium folinate, dissolved or suspended in a 0.5% hydroxypropylmethyl cellulose (HPMC) solution was orally administered to the mice once a day in amounts as shown in Table 3 for 14 consecutive days from the day after grouping.
The body weight change was calculated by subtracting the body weight of mice 15 days after the beginning of administration from the body weight of mice upon grouping used as a parameter of whole-body toxicity of the pharmaceutical preparation. Although calcium folinate was used in the experiment, the dosage given in the table is that calculated as the amount of folinic acid.

5-FU degradation = settings: compared with uracil; cited from earlier work

| SMILES | Relative tumor volume (Mean ± SD) [1] | Tumor growth inhibition ratio (%) ([1]; vs control group) | Relative tumor volume (Mean ± SD) [2] | Tumor growth inhibition ratio (%) [3] | enhancement of the antitumor effect of the tegafur/gimeracil/oteracil potassium combined drug ([4]; calcium folinate at the dose of 2.5 mg/kg/day) | enhancement of the antitumor effect of the tegafur/gimeracil/oteracil potassium combined drug ([4]; calcium folinate at the dose of 5 mg/kg/day) | Relative tumor volume (Mean ± SD) ([4]; folinic acid 20.0 mg/kg/day (as calcium folinate), alone or with tegafur+gimeracil+oteracil potassium 5.7+1.7+5.6 mg/kg/day, oral once a day for 14 days, 15 days after grouping) | Tumor growth inhibition ratio (%) ([4]; folinic acid 20.0 mg/kg/day (as calcium folinate), alone or with tegafur+gimeracil+oteracil potassium 5.7+1.7+5.6 mg/kg/day, oral once a day for 14 days, 15 days after grouping, vs control group) | Body weight change [5] | Body weight change [6] | Body weight change [7] | 5-FU degradation inhibitory effect relative to that of uracil (5-FU degradation) |
| --- | --- | --- | --- | --- | --- | --- | --- | --- | --- | --- | --- | --- |
| Nc1nc(=O)c2c([nH]1)NCC(CNc1ccc(C(=O)N[C@@H](CCC(=O)O)C(=O)O)cc1)N2C=O (mixture of isomers) [folinic acid] | 2.24 | 6.1% | 8.78 | 7.5% | some enhancement | clear enhancement | 4.50 ± 1.25 ^ | 5.4% | -0.8 g | 0.7 g | -0.6 g |  |
| Oc1cc(O)c(Cl)cn1 [gimeracil, 2,4-dihydroxy-5-chloropyridine] |  |  |  |  |  |  |  |  |  |  |  | about 200 times |
